Measured values published in US20170190671A1, “BIS(ARYL)CATECHOL DERIVATIVES AS HERBICIDES” (E I DU PONT DE NEMOURS AND COMPANY, priority 2014, published 2017).

Tests used:
Type in all cases: in vivo
[1] = tested on: foxtail, green (green foxtail, Setaria viridis); assay: Test F preemergence; conditions: 21 days, scale 0 to 100
Description: (§1) Seeds of plant species selected from bermudagrass (Cynodon dactylon), Surinam grass (Brachiaria decumbens), large (Lg) crabgrass (Digitaria sanguinalis), crabgrass, naked (naked crabgrass, Digitaria nuda), foxtail, green (green foxtail, Setaria viridis), johnsongrass (Sorghum halepense), kochia (Kochia scoparia), morningglory (pitted morningglory, Ipomoea lacunosa), nutsedge, purple (purple nutsedge, Cyperus rotundus), ragweed (common ragweed, Ambrosia elatior), mustard, black (black mustard, Brassica nigra), guineagrass (Panicum maximum), dallisgrass (Paspalum dilatatum), barnyardgrass (Echinochloa crus-galli), sandbur (southern sandbur, Cenchrus echinatus), sowthistle (common sowthistle, Sonchus oleraceous), Italian ryegrass (Lolium multiflorum), signalgrass (broadleaf signalgrass, Brachiaria platyphylla), dayflower (Virginia (VA) dayflower, Commelina virginica), bluegrass (annual bluegrass, Poa annua), quackgrass (Elytrigia repens), mallow (common mallow, Malva sylvestris), buckwheat, wild (wild buckwheat, Polygonum convolvulus), leafy spurge (Euphorbia esula), chickweed (common chickweed, Stellaria media), wild poinsettia (Euphorbia heterophylla), and pigweed (Amaranthus retroflexus) were planted into a blend of loam soil and sand and treated preemergence with test a chemical formulated in a non-phytotoxic solvent mixture which included a surfactant.
(§2) Treated plants and controls were maintained in a greenhouse for 21 days, after which time all species were compared to controls and visually evaluated. Plant response ratings, summarized in Table F, are based on a scale of 0 to 100 where 0 is no effect and 100 is complete control. A dash (-) response means no test result.

[2] = tested on: ragweed (common ragweed, Ambrosia elatior); assay: Test F preemergence; conditions: 21 days, scale 0 to 100
Description: as §1, §2

[3] = tested on: sandbur (southern sandbur, Cenchrus echinatus); assay: Test F preemergence; conditions: 21 days, scale 0 to 100
Description: as §1, §2

[4] = tested on: bluegrass (annual bluegrass, Poa annua); assay: Test F preemergence; conditions: 21 days, scale 0 to 100
Description: as §1, §2

[5] = tested on: quackgrass (Elytrigia repens); assay: Test F preemergence; conditions: 21 days, scale 0 to 100
Description: as §1, §2

[6] = tested on: barnyardgrass (Echinochloa crus-galli); assay: Test F preemergence; conditions: 21 days, scale 0 to 100
Description: as §1, §2

[7] = tested on: large (Lg) crabgrass (Digitaria sanguinalis); assay: Test F preemergence; conditions: 21 days, scale 0 to 100
Description: as §1, §2

[8] = tested on: buckwheat, wild (wild buckwheat, Polygonum convolvulus); assay: Test F preemergence; conditions: 21 days, scale 0 to 100
Description: as §1, §2

[9] = tested on: chickweed (common chickweed, Stellaria media); assay: Test F preemergence; conditions: 21 days, scale 0 to 100
Description: as §1, §2

[10] = tested on: dayflower (Virginia (VA) dayflower, Commelina virginica); assay: Test F preemergence; conditions: 21 days, scale 0 to 100
Description: as §1, §2

[11] = tested on: Surinam grass (Brachiaria decumbens); assay: Test F preemergence; conditions: 21 days, scale 0 to 100
Description: as §1, §2

[12] = tested on: nutsedge, purple (purple nutsedge, Cyperus rotundus); assay: Test F preemergence; conditions: 21 days, scale 0 to 100
Description: as §1, §2

[13] = tested on: wild poinsettia (Euphorbia heterophylla); assay: Test F preemergence; conditions: 21 days, scale 0 to 100
Description: as §1, §2

kochia (Kochia scoparia) = assay: Test F preemergence; conditions: 21 days, scale 0 to 100
Description: as §1, §2

[14] = tested on: pigweed (Amaranthus retroflexus); assay: Test F preemergence; conditions: 21 days, scale 0 to 100
Description: as §1, §2

[15] = tested on: signalgrass (broadleaf signalgrass, Brachiaria platyphylla); assay: Test F preemergence; conditions: 21 days, scale 0 to 100
Description: as §1, §2

[16] = tested on: leafy spurge (Euphorbia esula); assay: Test F preemergence; conditions: 21 days, scale 0 to 100
Description: as §1, §2

[17] = tested on: sowthistle (common sowthistle, Sonchus oleraceous); assay: Test F preemergence; conditions: 21 days, scale 0 to 100
Description: as §1, §2

[18] = tested on: morningglory (pitted morningglory, Ipomoea lacunosa); assay: Test F preemergence; conditions: 21 days, scale 0 to 100
Description: as §1, §2

[19] = tested on: sedge, umbrella (small-flower umbrella sedge, Cyperus difformis); assay: Test C flooded paddy; conditions: Flood, scale 0 to 100
Description: (§3) At time of treatment, test pots were flooded to 3 cm above the soil surface, treated by application of test compounds directly to the paddy water, and then maintained at that water depth for the duration of the test. Treated plants and controls were maintained in a greenhouse for 13 to 15 days, after which time all species were compared to controls and visually evaluated. […] A dash (-) response means no test result.

[20] = tested on: barnyardgrass (Echinochloa crus-galli); assay: Test C flooded paddy; conditions: Flood, scale 0 to 100
Description: as §3

rice (Oryza sativa) = assay: Test C flooded paddy; conditions: Flood, scale 0 to 100
Description: as §3

[21] = tested on: ducksalad (Heteranthera limosa); assay: Test C flooded paddy; conditions: Flood, scale 0 to 100
Description: as §3

For N#Cc1cccc(Oc2ncc(Cl)cn2)c1Oc1ncc(Cl)cn1 [Compound 3, 2,3-bis[(5-chloro-2-pyrimidinyl)oxy]benzonitrile], the “Plant response rating, Foxtail, Green” value ([1]; 62 g ai/ha) was 100, the “Plant response rating, Foxtail, Green” value ([1]; 125 g ai/ha) was 100 and the “Plant response rating, Foxtail, Green” value ([1]; 250 g ai/ha) was 100. For the same compound, the “Plant response rating, Ragweed” value ([2]; 62 g ai/ha) was 85, the “Plant response rating, Ragweed” value ([2]; 125 g ai/ha) was 100 and the “Plant response rating, Ragweed” value ([2]; 250 g ai/ha) was 100. For the same compound, the “Plant response rating, Sandbur” value ([3]; 62 g ai/ha) was 35, the “Plant response rating, Sandbur” value ([3]; 125 g ai/ha) was 100 and the “Plant response rating, Sandbur” value ([3]; 250 g ai/ha) was 100. The “Plant response rating, Bluegrass” value ([4]; 62 g ai/ha) was 80, the “Plant response rating, Bluegrass” value ([4]; 125 g ai/ha) was 100 and the “Plant response rating, Bluegrass” value ([4]; 250 g ai/ha) was 100. The “Plant response rating, Quackgrass” value ([5]; 62 g ai/ha) was 65, the “Plant response rating, Quackgrass” value ([5]; 125 g ai/ha) was 90 and the “Plant response rating, Quackgrass” value ([5]; 250 g ai/ha) was 98. The “Plant response rating, Barnyardgrass” value ([6]; 62 g ai/ha) was 98, the “Plant response rating, Barnyardgrass” value ([6]; 125 g ai/ha) was 100 and the “Plant response rating, Barnyardgrass” value ([6]; 250 g ai/ha) was 100. For the same compound, the “Plant response rating, Crabgrass, Large” value ([7]; 62 g ai/ha) was 100, the “Plant response rating, Crabgrass, Large” value ([7]; 125 g ai/ha) was 100 and the “Plant response rating, Crabgrass, Large” value ([7]; 250 g ai/ha) was 100. For the same compound, the “Plant response rating, Buckwheat, Wild” value ([8]; 62 g ai/ha) was 100, the “Plant response rating, Buckwheat, Wild” value ([8]; 125 g ai/ha) was 100 and the “Plant response rating, Buckwheat, Wild” value ([8]; 250 g ai/ha) was 100. The “Plant response rating, Chickweed” value ([9]; 62 g ai/ha) was 100, the “Plant response rating, Chickweed” value ([9]; 125 g ai/ha) was 100 and the “Plant response rating, Chickweed” value ([9]; 250 g ai/ha) was 100. For the same compound, the “Plant response rating, Dayflower, VA” value ([10]; 62 g ai/ha) was 98, the “Plant response rating, Dayflower, VA” value ([10]; 125 g ai/ha) was 100 and the “Plant response rating, Dayflower, VA” value ([10]; 250 g ai/ha) was 100. For the same compound, the “Plant response rating, Surinam Grass” value ([11]; 62 g ai/ha) was 75, the “Plant response rating, Surinam Grass” value ([11]; 125 g ai/ha) was 100 and the “Plant response rating, Surinam Grass” value ([11]; 250 g ai/ha) was 100. The “Plant response rating, Nutsedge, Purple” value ([12]; 62 g ai/ha) was 40, the “Plant response rating, Nutsedge, Purple” value ([12]; 125 g ai/ha) was 60 and the “Plant response rating, Nutsedge, Purple” value ([12]; 250 g ai/ha) was 85. For the same compound, the “Plant response rating, Poinsettia, Wild” value ([13]; 62 g ai/ha) was 95, the “Plant response rating, Poinsettia, Wild” value ([13]; 125 g ai/ha) was 95 and the “Plant response rating, Poinsettia, Wild” value ([13]; 250 g ai/ha) was 100. For the same compound, the “Plant response rating, Kochia” value (kochia (Kochia scoparia); 62 g ai/ha) was 100, the “Plant response rating, Kochia” value (kochia (Kochia scoparia); 125 g ai/ha) was 100 and the “Plant response rating, Kochia” value (kochia (Kochia scoparia); 250 g ai/ha) was 100. The “Plant response rating, Pigweed” value ([14]; 62 g ai/ha) was 100, the “Plant response rating, Pigweed” value ([14]; 125 g ai/ha) was 100 and the “Plant response rating, Pigweed” value ([14]; 250 g ai/ha) was 100. For the same compound, the “Plant response rating, Signalgrass” value ([15]; 62 g ai/ha) was 100, the “Plant response rating, Signalgrass” value ([15]; 125 g ai/ha) was 100 and the “Plant response rating, Signalgrass” value ([15]; 250 g ai/ha) was 100. For the same compound, the “Plant response rating, Leafy Spurge” value ([16]; 62 g ai/ha) was 98, the “Plant response rating, Leafy Spurge” value ([16]; 125 g ai/ha) was 100 and the “Plant response rating, Leafy Spurge” value ([16]; 250 g ai/ha) was 98. For the same compound, the “Plant response rating, Sowthistle” value ([17]; 62 g ai/ha) was 100, the “Plant response rating, Sowthistle” value ([17]; 125 g ai/ha) was 100 and the “Plant response rating, Sowthistle” value ([17]; 250 g ai/ha) was 100. The “Plant response rating, Morningglory, Pitt” value (from here on “Plant response rating … Pitt”) ([18]; 62 g ai/ha) was 100, the “Plant response rating … Pitt” value ([18]; 125 g ai/ha) was 100 and the “Plant response rating … Pitt” value ([18]; 250 g ai/ha) was 100.

In the case of N#Cc1cccc(Oc2ncc(Cl)cn2)c1Oc1ncc(Br)cn1 [Compound 4, 2-[(5-bromo-2-pyrimidinyl)oxy]-3-[(5-chloro-2-pyrimidinyl)oxy]benzonitrile], the “Plant response rating, Sedge, Umbrella” value ([19]; 31 g ai/ha) is reported as 0, the “Plant response rating, Sedge, Umbrella” value ([19]; 62 g ai/ha) is reported as 0 and the “Plant response rating, Sedge, Umbrella” value ([19]; 125 g ai/ha) is reported as 75. The “Plant response rating, Sedge, Umbrella” value ([19]; 250 g ai/ha) was 100, the “Plant response rating, Barnyardgrass” value ([20]; 31 g ai/ha) was 0 and the “Plant response rating, Barnyardgrass” value ([20]; 62 g ai/ha) was 0. The “Plant response rating, Barnyardgrass” value ([20]; 125 g ai/ha) was 20, the “Plant response rating, Barnyardgrass” value ([20]; 250 g ai/ha) was 40 and the “Plant response rating, Rice” value (rice (Oryza sativa); 31 g ai/ha) was 0. The “Plant response rating, Rice” value (rice (Oryza sativa); 62 g ai/ha) was 0, the “Plant response rating, Rice” value (rice (Oryza sativa); 125 g ai/ha) was 0 and the “Plant response rating, Rice” value (rice (Oryza sativa); 250 g ai/ha) was 30. The “Plant response rating, Ducksalad” value ([21]; 31 g ai/ha) was 0, the “Plant response rating, Ducksalad” value ([21]; 62 g ai/ha) was 40 and the “Plant response rating, Ducksalad” value ([21]; 125 g ai/ha) was 100. The “Plant response rating, Ducksalad” value ([21]; 250 g ai/ha) was 100.

In the case of Fc1cccc(Oc2ncc(Cl)cn2)c1Oc1ccc(Cl)nc1 [Compound 20], the “Plant response rating, Sedge, Umbrella” value ([19]; 31 g ai/ha) is reported as 0, the “Plant response rating, Sedge, Umbrella” value ([19]; 62 g ai/ha) is reported as 0 and the “Plant response rating, Sedge, Umbrella” value ([19]; 125 g ai/ha) is reported as 65. For the same compound, the “Plant response rating, Sedge, Umbrella” value ([19]; 250 g ai/ha) was 80, the “Plant response rating, Barnyardgrass” value ([20]; 31 g ai/ha) was 0 and the “Plant response rating, Barnyardgrass” value ([20]; 62 g ai/ha) was 0. The “Plant response rating, Barnyardgrass” value ([20]; 125 g ai/ha) was 0, the “Plant response rating, Barnyardgrass” value ([20]; 250 g ai/ha) was 0 and the “Plant response rating, Rice” value (rice (Oryza sativa); 31 g ai/ha) was 0. For the same compound, the “Plant response rating, Rice” value (rice (Oryza sativa); 62 g ai/ha) was 0, the “Plant response rating, Rice” value (rice (Oryza sativa); 125 g ai/ha) was 0 and the “Plant response rating, Rice” value (rice (Oryza sativa); 250 g ai/ha) was 0. The “Plant response rating, Ducksalad” value ([21]; 31 g ai/ha) was 0, the “Plant response rating, Ducksalad” value ([21]; 62 g ai/ha) was 0 and the “Plant response rating, Ducksalad” value ([21]; 125 g ai/ha) was 45. The “Plant response rating, Ducksalad” value ([21]; 250 g ai/ha) was 70.
